The values below come from patent US12600717B2, “Tricyclic compounds as inhibitors of KRAS” (Incyte Corporation, priority 2021, dated 2026).

As a reminder, the IC50 is the concentration needed to halve the response being measured.

For assay [1], the target named is KRAS G12D (Homo sapiens, UniProt P01116, G12D). The experiment in a line: GDP-GTP exchange assay (bodipy-GDP/GppNHp, SOS1), KRAS G12D. In kind it is biochemical. The settings on record: bodipy-loaded KRAS G12D 2.5 nM, 4 hours pre-incubation with inhibitor, 2 hours after GppNHp/SOS1; read-out: G12D_exchange IC50. As for the experimental part: (§1) The inhibitor potency of the exemplified compounds was determined in a fluorescence based guanine nucleotide exchange assay, which measures the exchange of bodipy-GDP (fluorescently labeled GDP) for GppNHp (Non-hydrolyzable GTP analog) to generate the active state of KRAS in the presence of SOS1 (guanine nucleotide exchange factor). Inhibitors were serially diluted in DMSO and a volume of 0.1 μL was transferred to the wells of a black low volume 384-well plate. 5 μL/well volume of bodipy-loaded KRAS G12D diluted to 2.5 nM in assay buffer (25 mM Hepes pH 7.5, 50 mM NaCl, 10 mM MgCl2 and 0.01% Brij-35) was added to the plate and pre-incubated with inhibitor for 4 hours at ambient temperature. Appropriate controls (enzyme with no inhibitor or with a G12D inhibitor) were included on the plate. The exchange was initiated by the addition of a 5 μL/well volume containing 1 mM GppNHp and 300 nM SOS1 in assay buffer. The 10 μL/well reaction concentration of the bodipy-loaded KRAS G12D, GppNHp, and SOS1 were 2.5 nM, 500 uM, and 150 nM, respectively. The reaction plates were incubated at ambient temperature for 2 hours, a time estimated for complete GDP-GTP exchange in the absence of inhibitor. For the KRAS G12V mutant, similar guanine nucleotide exchange assays were used with 2.5 nM as final concentration for the bodipy loaded KRAS proteins and 3 hours incubation after adding GppNHp-SOS1 mixture. A cyclic peptide described to selectively bind G12D mutant (Sakamoto et al., BBRC 484.3 (2017), 605-611) or internal compounds with confirmed binding were used as positive controls in the assay plates. Fluorescence intensities were measured on a PheraStar plate reader instrument (BMG Labtech) with excitation at 485 nm and emission at 520 nm.
(§2) Either GraphPad prism or Genedata Screener SmartFit was used to analyze the data. The IC50 values were derived by fitting the data to a four parameter logistic equation producing a sigmoidal dose-response curve with a variable Hill coefficient.
(§3) The symbol “†” indicates IC50≤100 nM, “††” indicates IC50>100 nM but ≤1 μM; and “†††” indicates IC50 is >1 μM but ≤5 μM, “††††” indicates IC50 is >5 μM but ≤10 μM. “NA” indicates IC50 not available.

In assay [2] the target is KRAS G12V (Homo sapiens, UniProt P01116, G12V). The experiment in a line: GDP-GTP exchange assay (bodipy-GDP/GppNHp, SOS1), KRAS G12V. The format is biochemical. The following applies: bodipy-loaded KRAS G12V 2.5 nM, 3 hours incubation after adding GppNHp-SOS1; read-out: G12V_exchange IC50. As for the experimental part: as §1, §2, §3
Sequence of KRAS G12V (P01116 1-188 isoform P01116-2 G12V): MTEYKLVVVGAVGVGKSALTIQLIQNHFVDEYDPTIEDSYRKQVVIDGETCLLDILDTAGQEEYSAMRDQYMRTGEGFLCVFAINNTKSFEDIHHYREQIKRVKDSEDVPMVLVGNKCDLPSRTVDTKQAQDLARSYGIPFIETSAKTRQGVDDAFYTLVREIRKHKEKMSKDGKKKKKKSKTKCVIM

Sequence of KRAS G12D (P01116 1-188 isoform P01116-2 G12D): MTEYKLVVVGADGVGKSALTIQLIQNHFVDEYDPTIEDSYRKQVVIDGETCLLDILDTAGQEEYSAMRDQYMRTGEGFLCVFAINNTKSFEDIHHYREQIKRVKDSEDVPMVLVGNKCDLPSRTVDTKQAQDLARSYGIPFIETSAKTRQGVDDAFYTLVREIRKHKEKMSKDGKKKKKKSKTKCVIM

Take `C[C@H](Oc1nc2c(F)c(-c3cccc4cccc(C#N)c34)c(Cl)cc2c2c1ncn2[C@H]1CCN(C(=O)C2CC2)[C@H](CC#N)C1)[C@@H]1CCCN1C` [Example 43, 8-(8-chloro-1-((2S,4S)-2-(cyanomethyl)-1-(cyclopropanecarbonyl)piperidin-4-yl)-6-fluoro-4-((S)-1-((S)-1-methylpyrrolidin-2-yl)ethoxy)-1H-imidazo[4,5-c]quinolin-7-yl)-1-naphthonitrile]: the figures for the IC50 in assay [1] and in assay [2] were at most 100 nM and 100 to 1000 nM, respectively.
For the compound `CN1CCC[C@H]1COc1nc2c(F)c(-c3cc(O)cc4ccccc34)c(CCC#N)cc2c2c1nc(-c1cn(C3CCC3)nn1)n2C1C2CNC1C2` (single isomer, unassigned) [Example 27a], the IC50 in assay [1] and in assay [2] was at most 100 nM each time.
Regarding `Cc1cc2c(nc(N3CC(N(C)C)C3)c3nc(CCC(=O)N4CCN(c5ncccn5)CC4)n(C4C5CNC4C5)c32)c(F)c1-c1cc(O)cc2ccccc12` (single isomer, unassigned) [Example 2a, 3-(1-((endo)-2-azabicyclo[2.1.1]hexan-5-yl)-4-(3-(dimethylamino)azetidin-1-yl)-6-fluoro-7-(3-hydroxynaphthalen-1-yl)-8-methyl-1H-imidazo[4,5-c]quinolin-2-yl)-1-(4-(pyrimidin-2-yl)piperazin-1-yl)propan-1-one], the concentration for half-maximal inhibition (IC50) in assay [1] is at most 100 nM; in assay [2] it was 1000 to 5000 nM.
In the case of `CN(C)C1CN(c2nc3c(F)c(-c4cc(O)cc5ccccc45)c(CCC#N)cc3c3c2nc(C2CC2)n3C2C3CNC2C3)C1` (single isomer, unassigned) [Example 25a, 3-(1-((endo)-2-Azabicyclo[2.1.1]hexan-5-yl)-2-cyclopropyl-4-(3-(dimethylamino)azetidin-1-yl)-6-fluoro-7-(3-hydroxynaphthalen-1-yl)-1H-imidazo[4,5-c]quinolin-8-yl)propanenitrile], the half-maximal inhibitory concentration (IC50) in assay [1] was at most 100 nM; in assay [2] it was 100 to 1000 nM.
For `CC(=O)N1CCN(C(=O)CCc2nc3c(N4CC(N(C)C)C4)nc4c(F)c(-c5cc(O)cc6ccccc56)c(CCC#N)cc4c3n2C2C3CNC2C3)CC1` (single isomer, unassigned) [Example 4a, 3-(2-(3-(4-acetylpiperazin-1-yl)-3-oxopropyl)-1-((endo)-2-azabicyclo[2.1.1]hexan-5-yl)-4-(3-(dimethylamino)azetidin-1-yl)-6-fluoro-7-(3-hydroxynaphthalen-1-yl)-1H-imidazo[4,5-c]quinolin-8-yl)propanenitrile], in that order: at most 100 nM and at most 100 nM.
On to `C[C@H](Oc1nc2c(F)c(-c3cccc4cccc(C#N)c34)c(Cl)cc2c2c1ncn2[C@H]1CCN(C(=O)c2nc[nH]n2)[C@H](CC#N)C1)[C@@H]1CCCN1C` [Example 41, 8-(8-chloro-1-((2S,4S)-2-(cyanomethyl)-1-(1H-1,2,4-triazole-3-carbonyl)piperidin-4-yl)-6-fluoro-4-((S)-1-((S)-1-methylpyrrolidin-2-yl)ethoxy)-1H-imidazo[4,5-c]quinolin-7-yl)-1-naphthonitrile], for which the IC50 in assay [1] is 100 to 1000 nM; in assay [2], at most 100 nM.
For `CC(=O)N1CC[C@H](n2c(=O)[nH]c3c(O[C@@H](C)[C@@H]4CCCN4C)nc4c(F)c(-c5cccc6cccc(C#N)c56)c(Cl)cc4c32)C[C@H]1CC#N` [Example 45, 8-(1-((2S,4S)-1-acetyl-2-(cyanomethyl)piperidin-4-yl)-8-chloro-6-fluoro-4-((S)-1-((S)-1-methylpyrrolidin-2-yl)ethoxy)-2-oxo-2,3-dihydro-1H-imidazo[4,5-c]quinolin-7-yl)-1-naphthonitrile], in that order: 100 to 1000 nM and at most 100 nM.
As for `CN(C)C1CN(c2nc3c(F)c(-c4cc(O)cc5ccccc45)c(CCC#N)cc3c3c2nc(-c2ccn(-c4ccccc4)n2)n3C2C3CNC2C3)C1` (single isomer, unassigned) [Example 34a, 3-(1-((endo)-2-azabicyclo[2.1.1]hexan-5-yl)-4-(3-(dimethylamino)azetidin-1-yl)-6-fluoro-7-(3-hydroxynaphthalen-1-yl)-2-(1-phenyl-1H-pyrazol-3-yl)-1H-imidazo[4,5-c]quinolin-8-yl)propanenitrile], the half-maximal inhibitory concentration (IC50) in assay [1] and in assay [2] was at most 100 nM throughout.
For the compound `CC(=O)N1CC[C@H](n2nnc3c(O[C@@H](C)[C@@H]4CCCN4C)nc4c(F)c(-c5cccc6cccc(C#N)c56)c(Cl)cc4c32)C[C@H]1CC#N` [Example 44, 8-(1-((2S,4S)-1-acetyl-2-(cyanomethyl)piperidin-4-yl)-8-chloro-6-fluoro-4-((S)-1-((S)-1-methylpyrrolidin-2-yl)ethoxy)-1H-[1,2,3]triazolo[4,5-c]quinolin-7-yl)-1-naphthonitrile], the IC50 in assay [1] and in assay [2] was at most 100 nM in each case.
Turning to `CN(C)C(=O)CCc1nc2c(N3CC(N(C)C)C3)nc3c(-c4cnn(-c5ccccn5)c4)c(-c4cc(O)cc5ccccc45)c(CCC#N)cc3c2n1C1C2CNC1C2` (stereo not drawn) [Example 13, 3-(1-((endo)-2-azabicyclo[2.1.1]hexan-5-yl)-8-(2-cyanoethyl)-4-(3-(dimethylamino)azetidin-1-yl)-7-(3-hydroxynaphthalen-1-yl)-6-(1-(pyridin-2-yl)-1H-pyrazol-4-yl)-1H-imidazo[4,5-c]quinolin-2-yl)-N,N-dimethylpropanamide], the IC50 lay within 100 to 1000 nM in assay [1] and 5000 to 10000 nM in assay [2].
The like results for `CN(C)C(=O)CCc1nc2c(N3CC(N(C)C)C3)nc3c(F)c(-c4nc(N)ccc4C(F)(F)F)c(CCC#N)cc3c2n1C1C2CNC1C2` (single isomer, unassigned) [Example 32a, 3-(7-(6-amino-3-(trifluoromethyl)pyridin-2-yl)-1-endo-(2-azabicyclo[2.1.1]hexan-5-yl)-8-(2-cyanoethyl)-4-(3-(dimethylamino)azetidin-1-yl)-6-fluoro-1H-imidazo[4,5-c]quinolin-2-yl)-N,N-dimethylpropanamide] were, in that order, 100 to 1000 nM and 5000 to 10000 nM.
For `CN(C)C(=O)CCc1nc2c(N3CC(N(C)C)C3)nc3c(F)c(-c4nc(N)cc5ccccc45)c(CCC#N)cc3c2n1C1C2CNC1C2` (single isomer, unassigned) [Example 31a, 3-(7-(3-aminoisoquinolin-1-yl)-1-endo-(2-azabicyclo[2.1.1]hexan-5-yl)-8-(2-cyanoethyl)-4-(3-(dimethylamino)azetidin-1-yl)-6-fluoro-1H-imidazo[4,5-c]quinolin-2-yl)-N,N-dimethylpropanamide], in that order: 100 to 1000 nM and 5000 to 10000 nM.
The like results for `CNCCc1nc2c(N3CC(N(C)C)C3)nc3c(F)c(-c4cc(O)cc5ccccc45)c(Cc4ccc(C#N)cc4)cc3c2n1[C@@H]1[C@@H]2CN[C@H]1C2` (relative stereo) [Example 29, 4-((1-((endo)-2-azabicyclo[2.1.1]hexan-5-yl)-4-(3-(dimethylamino)azetidin-1-yl)-6-fluoro-7-(3-hydroxynaphthalen-1-yl)-2-(2-(methylamino)ethyl)-1H-imidazo[4,5-c]quinolin-8-yl)methyl)benzonitrile] were, in that order, 100 to 1000 nM and 5000 to 10000 nM.
As for `CN(C)C(=O)CCc1nc2c(N3CC(N(C)C)C3)nc3c(F)c(-c4cc(O)cc5ccccc45)c(Cn4cccn4)cc3c2n1[C@@H]1[C@@H]2CN[C@H]1C2` (relative stereo) [Example 9, 3-(8-((1H-pyrazol-1-yl)methyl)-1-((endo)-2-azabicyclo[2.1.1]hexan-5-yl)-4-(3-(dimethylamino)azetidin-1-yl)-6-fluoro-7-(3-hydroxynaphthalen-1-yl)-1H-imidazo[4,5-c]quinolin-2-yl)-N,N-dimethylpropanamide], the half-maximal inhibitory concentration (IC50) in assay [1] and in assay [2] was at most 100 nM in each case.
On to `CN(C)C(=O)CCc1nc2c(N3CC(N(C)C)C3)nc3c(F)c(-c4cc(O)cc(Cl)c4C4CC4)ccc3c2n1C1C2CNC1C2` (stereo not drawn) [Example 11, 3-(1-(2-azabicyclo[2.1.1]hexan-5-yl)-7-(3-chloro-2-cyclopropyl-5-hydroxyphenyl)-4-(3-(dimethylamino)azetidin-1-yl)-6-fluoro-1H-imidazo[4,5-c]quinolin-2-yl)-N,N-dimethylpropanamide], for which the half-inhibitory concentration (IC50) was at most 100 nM in assay [1] and 1000 to 5000 nM in assay [2].
